The target in series [1] is T1, BRN2 (Homo sapiens, UniProt P20265).
T1 sequence (P20265 1-443): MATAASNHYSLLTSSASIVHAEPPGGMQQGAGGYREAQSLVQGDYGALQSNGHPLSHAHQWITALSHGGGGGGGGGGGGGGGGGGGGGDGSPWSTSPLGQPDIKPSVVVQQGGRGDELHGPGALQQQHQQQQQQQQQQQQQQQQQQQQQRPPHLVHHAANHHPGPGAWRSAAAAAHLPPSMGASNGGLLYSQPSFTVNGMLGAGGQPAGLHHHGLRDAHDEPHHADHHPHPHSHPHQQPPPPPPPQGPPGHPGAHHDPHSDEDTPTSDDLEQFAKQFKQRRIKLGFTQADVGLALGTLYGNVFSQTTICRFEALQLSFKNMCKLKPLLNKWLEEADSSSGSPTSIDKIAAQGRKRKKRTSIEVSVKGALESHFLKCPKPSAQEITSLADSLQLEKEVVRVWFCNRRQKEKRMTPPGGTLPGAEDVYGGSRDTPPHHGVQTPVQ
Nature of the series: cell-based. Particulars: negative = activation; for inhibition at 10 µM: read-out: % BRN2 Inhibition (10 μM), 10 μM compound, 24 hours, 42D^ENZR cells stably expressing BRN2-luciferase reporter; for inhibition at 30 µM: read-out: % BRN2 Inhibition (30 μM), 30 μM compound, 24 hours, 42D^ENZR cells stably expressing BRN2-luciferase reporter. An excerpt:
Decreased expression of luciferase protein is validated via western blot to confirm downregulation and avoid false positive molecules that inhibit luciferase protein activity and not BRN2-drive luciferase expression. Molecules are prioritized by their inhibition potency to measure direct interaction with BRN2 in Step 2.
In TABLES 1 and 2, when a single value is mentioned in columns Met Stab % and T½, it refers to compound's stability in MLM and when two values are given they represent HLM/MLM. There is a distinction in TABLES 1 and 2 difference between “Active” and “Specific” or “Specificity”. Compounds are first tested to quantify inhibition of BRN2 transcriptional activity in a luciferase assay to determine “Activity” at […] and 30 μM concentrations. […] Where data is not available “na” is inserted. Where data has yet to be calculated the notation “nc” is used.
A general note: Reporter assays use an easily measured gene product as a stand-in for the process of interest.

Series [2] is described as follows: Liver microsome metabolic stability, MLM. The note with it: MLM (single value or second of two), 1 μM compound, 0.25 mg/mL protein; for Met Stab % (60 mins HLM/MLM): percent remaining at 60 min, 1 mM NADPH; for half-life at 1 µM: mouse, liver microsomes, pH 7.4, read-out: T1/2 in (mins HLM/MLM). It is filed as in vitro ADME. Here is the method:
(§1) Potassium phosphate buffer (Kphos) was prepared by adding 0.647 g potassium phosphate monobasic (KH2PO4) and 3.527 g potassium phosphate dibasic ([…]) to 400 mL of Milli-Q water. pH of the buffer was adjusted to 7.4 and volume was made up to 500 mL.
(§2) Microsomes (20 mg/mL) were diluted in KH2PO4 buffer to prepare a concentration of 0.357 mg/mL.
(§3) Stock solutions of BRN2 inhibitors were prepared in DMSO at a concentration of 1 mM
(§4) A stock solution of 3.33 mM NADPH (3.33×) was prepared by dissolving appropriate amount of NADPH in KH2PO4 buffer.
(§5) Total Incubation volume: 100 μL
(§6) Compound concentration: 1 μM
(§7) Protein Concentration: 0.25 mg/mL
(§8) An 1120 μL aliquot of Kphos buffer (50 mM, pH 7.4) containing liver microsomes (0.357 mg/mL) were added to individual 2 mL tubes (final concentration 0.25 mg/mL). Test compounds (1 mM) and positive controls were directly spiked into respective tubes to prepare a concentration of 1.428 μM (final concentration 1 μM). From the above mix, 70 μL was added to individual wells of 96 well reaction plates and pre-incubated in a 37° C. water bath for 5 min. All the reactions were initiated by adding 30 μL of 3.33 mM NADPH (final concentration 1 mM). Reactions without NADPH and buffer controls (minus NADPH) at 0 min and 60 min were also incubated to rule out non-NADPH metabolism or chemical instability in the incubation buffer. All reactions were terminated using 100 μL of ice-cold acetonitrile containing internal standard at 0, 5, 15, 30 and 60 min. The plates were centrifuged at 4000 RPM for 15 min and 100 μL aliquots were submitted for analysis by LC-MS/MS.
(§9) Samples were monitored for parent compounds disappearance in MRM mode using LC-MS/MS.
(§10) The percent remaining of test compounds and positive control in each sample was determined by considering peak area ratio in the 0 minute sample as 100%. The Half-life of compounds in microsomes is calculated by formula:
(§11) Half-life (t½) (min)=0.693/k, where k is gradient of line determined from plot of peak area ratio (compound peak area/internal standard peak area) against time.
(§12) In vitro intrinsic clearance (CL'int) (units in mL/min/kg) was calculated using the formula.
(§13) [formula] • For liver microsomes, scaling factor used was 45 mg microsomal protein per gm liver. • Indicates liver weight (gm) which varies species wise. For mice the liver weights are 90 gm.
(§14) Where data is not available “na” is inserted.

A short description of series [3]: Liver microsome metabolic stability, HLM. Particulars: HLM (first of two values), 1 μM compound, 0.25 mg/mL protein; for Met Stab % (60 mins HLM/MLM): percent remaining at 60 min, 1 mM NADPH; for half-life at 1 µM: human, liver microsomes, pH 7.4, read-out: T1/2 in (mins HLM/MLM). It is filed as in vitro ADME. Here is the method: as §1, §2, §3, §4, §5, §6, §7, §8, §9, §10, §11, §12, §13, §14
On the technique in general: Liver microsomes are vesicles of endoplasmic reticulum, rich in cytochrome P450 enzymes.

As usually defined, the inhibition is the percentage by which the read-out fell short of the control.

`c1ccc2c(c1)CCC2c1cnn(-c2nc3ccccc3s2)c1` (stereo not drawn) [VPC-7-43]: in series [1], the inhibition at 10 µM was 2% and the inhibition at 30 µM came to 41%. Also, in series [2], the “Met Stab % (60 mins HLM/MLM)” value stood at 5% and the half-life at 1 µM worked out at 14 min. Besides, in series [3], the “Met Stab % (60 mins HLM/MLM)” value turned out to be 20% and the half-life at 1 µM amounted to 27 min.
Take `c1ccc2c(c1)CCC2c1ccc(-c2nc3ccccc3s2)o1` (stereo not drawn) [VPC-7-44]: in series [1], the inhibition at 10 µM was 83% and the inhibition at 30 µM came out at 93%. Also, in series [2], the “Met Stab % (60 mins HLM/MLM)” value came to 44% and the half-life at 1 µM worked out at 52 min. Also, in series [3], the “Met Stab % (60 mins HLM/MLM)” value was 62% and the half-life at 1 µM is above 60 min.
As to `Cn1c(-c2ccc(-c3ccccc3F)o2)nc2c(F)cccc21` [VPC-18-31, 4-Fluoro-2-(5-(2-fluorophenyl)furan-2-yl)-1-methyl-1H-benzo[d]imidazole], in series [1], the inhibition at 10 µM came out at 67.9% and the inhibition at 30 µM stood at 77.8%. In addition, the “Met Stab % (60 mins HLM/MLM)” value in series [2] worked out at 0%. In series [3], the “Met Stab % (60 mins HLM/MLM)” value worked out at 17% and the half-life at 1 µM was 2 min.
Regarding `O=[N+]([O-])c1ccc2nc(-c3ccc(-c4ccccc4F)o3)[nH]c2c1` [VPC-18-32, 2-(5-(2-Fluorophenyl)furan-2-yl)-6-nitro-1H-benzo[d]imidazole], in series [1], the inhibition at 10 µM came to 83.7% and the inhibition at 30 µM stood at 95.5%. In series [2], the “Met Stab % (60 mins HLM/MLM)” value is listed as 4% and the half-life at 1 µM stood at 12 min. Further, in series [3], the “Met Stab % (60 mins HLM/MLM)” value was 20% and the half-life at 1 µM was found to be 26 min.
Turning to `c1ccc(-c2nc(-c3cc4ccccc4o3)cs2)cc1` [VPC-18-33, 4-(Benzofuran-2-yl)-2-phenylthiazole], in series [1], the inhibition at 10 µM turned out to be 22.4% and the inhibition at 30 µM came out at 57.2%. Also, in series [2], the “Met Stab % (60 mins HLM/MLM)” value is 1% and the half-life at 1 µM is 10 min. In series [3], the “Met Stab % (60 mins HLM/MLM)” value is recorded as 30% and the half-life at 1 µM was found to be 36 min.
`COc1ccccc1-c1ccc(-c2nc3ccccc3n2C)o1` [VPC-18-35, 2-(5-(2-Methoxyphenyl)furan-2-yl)-1-methyl-1H-benzo[d]imidazole]: in series [1], the inhibition at 10 µM was 51.6% and the inhibition at 30 µM was determined as 95.8%. Besides, in series [2], the “Met Stab % (60 mins HLM/MLM)” value is 0% and the half-life at 1 µM was 5 min. Also, in series [3], the “Met Stab % (60 mins HLM/MLM)” value was determined as 4% and the half-life at 1 µM amounted to 13 min.
Take `CCn1c(-c2ccc(-c3ccccc3)o2)nc2ccccc21` [VPC-18-36, 1-Ethyl-2-(5-phenylfuran-2-yl)-1H-benzo[d]imidazole]: in series [1], the inhibition at 10 µM was found to be 57.5% and the inhibition at 30 µM is 93.4%. In series [2], the “Met Stab % (60 mins HLM/MLM)” value came to 2% and the half-life at 1 µM is 13 min. In series [3], the “Met Stab % (60 mins HLM/MLM)” value stood at 15% and the half-life at 1 µM was found to be 22 min.
For `Cn1c(-c2ccc(-c3ccc(F)cc3F)o2)nc2ccccc21` [VPC-18-41, 2-(5-(2,4-Difluorophenyl)furan-2-yl)-1-methyl-1H-benzo[d]imidazole], the inhibition at 10 µM in series [1] worked out at 57.5%. Besides, in series [1], the inhibition at 30 µM is 91.1%. Also, the “Met Stab % (60 mins HLM/MLM)” value in series [2] and in series [3] was 0/0% throughout.
As to `CN1CCN(c2ccc(-c3nc4ccc(C(F)(F)F)cc4n3C)o2)CC1` [VPC-18-102], in series [1], the inhibition at 10 µM was 22.6% and the inhibition at 30 µM was found to be 55.5%. In series [2], the “Met Stab % (60 mins HLM/MLM)” value was 0% and the half-life at 1 µM stood at 7 min.
With `FC(F)(F)n1c(-c2ccc(-c3ccccc3)o2)nc2ccccc21` [VPC-18-103], in series [1], the inhibition at 10 µM was 88.5% and the inhibition at 30 µM worked out at 95.3%. Besides, in series [2], the “Met Stab % (60 mins HLM/MLM)” value was determined as 0% and the half-life at 1 µM was 9 min.
Regarding `FC(F)(F)c1ccc2cc(-c3csc(-c4cocn4)n3)oc2c1` [VPC-18-106], in series [1], the inhibition at 10 µM is 90.6% and the inhibition at 30 µM worked out at 90%. In addition, in series [2], the “Met Stab % (60 mins HLM/MLM)” value was determined as 7% and the half-life at 1 µM is 16 min.
As to `Clc1ccc2nc(-c3csc(-c4ccco4)n3)oc2c1` [VPC-18-107], in series [1], the inhibition at 10 µM came out at 36.9% and the inhibition at 30 µM is 66.9%. Further, in series [2], the “Met Stab % (60 mins HLM/MLM)” value amounted to 7% and the half-life at 1 µM was 8 min.
As to `O=C1CCN(c2nc(-c3cc4ccc(Cl)cc4o3)cs2)C1` [VPC-18-109], in series [1], the inhibition at 10 µM is 81.7% and the inhibition at 30 µM was found to be 91.5%. Moreover, in series [2], the “Met Stab % (60 mins HLM/MLM)” value was 4% and the half-life at 1 µM came to 13 min.
For the compound `FC(F)(F)c1ccc2cc(-c3csc(-c4cc[nH]c4)n3)oc2c1` [VPC-18-111], in series [1], the inhibition at 10 µM came out at 96.2% and the inhibition at 30 µM was 98.6%. Further, in series [2], the “Met Stab % (60 mins HLM/MLM)” value was determined as 38% and the half-life at 1 µM amounted to 48 min.
For `c1ccc2c(-c3cnc(-c4ccoc4)s3)coc2c1` [VPC-18-112], in series [1], the inhibition at 10 µM was 41.8% and the inhibition at 30 µM amounted to 81.6%. Further, in series [2], the “Met Stab % (60 mins HLM/MLM)” value is listed as 1% and the half-life at 1 µM came out at 9 min.
The matching figures for `Oc1ccc2cc(-c3csc(-c4ccco4)n3)oc2c1` [VPC-18-113]: 94%, 94%, 3% and 12 min.
The matching figures for `Clc1ccc2cc(-c3csc(C4CCCO4)n3)oc2c1` (stereo not drawn) [VPC-18-114]: 92%, 95%, 14% and 25 min.
`COc1ccc2cc(-c3csc(-c4ccco4)n3)oc2c1` [VPC-18-118]: in series [1], the inhibition at 10 µM was 74% and the inhibition at 30 µM turned out to be 92.5%. In addition, in series [2], the “Met Stab % (60 mins HLM/MLM)” value is reported as 1% and the half-life at 1 µM was found to be 9 min.
The matching figures for `FC(F)(F)c1ccc2cc(-c3coc(-c4ccco4)n3)oc2c1` [VPC-18-120]: 88.9%, 88.8%, 6% and 13 min.
Take `Clc1ccc2cc(-c3coc(-c4ccco4)n3)oc2c1` [VPC-18-121]: in series [1], the inhibition at 10 µM is 92.7% and the inhibition at 30 µM came out at 93.5%. In series [2], the “Met Stab % (60 mins HLM/MLM)” value came to 0% and the half-life at 1 µM is 8 min.

These data come from US20220106304A1, “Transcription Factor BRN2 Inhibitory Compounds as Therapeutics and Methods for Their Use” (The University of British Columbia, priority 2018, published 2022).
